Source: the supplement of paper PMC10883282
Structures can show the parent of a compound that is named as a salt. ± gives the standard deviation of the averaged measurements.

Test system: SW684
Experiment: relative viability vs DMSO control (72 h) (fraction); higher = more viable cells
Outline: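 Sarcoma cell lines in 384-well plates, seeded to reach 80–90% confluence, were given compound after 24 h and kept 72 h at 37 °C, 5% CO2, with 0.1% DMSO vehicle and a 5 µM positive control. Relative viability came from ATPLite as percent growth, averaged over up to triplicate wells. On the rescaled values, 1 equals full and 0 equals none.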

Compound | relative viability (0.00017 µM) | relative viability (0.00051 µM) | relative viability (0.00152 µM) | relative viability (0.00457 µM) | relative viability (0.01372 µM) | relative viability (0.04115 µM) | relative viability (0.1235 µM) | relative viability (0.3704 µM) | relative viability (1.111 µM) | relative viability (3.333 µM) | relative viability (10 µM)
C[C@@H]1COCCN1c1cc(-c2ccnn2C)c2ccnc(-c3ccn[nH]3)c2n1 | 1.14 ± 0.056 | 1.19 ± 0.041 | 1.18 ± 0.085 | 1.17 ± 0.069 | 1.14 ± 0.082 | 1.06 ± 0.056 | 1.04 ± 0.048 | 0.919 ± 0.036 | 0.719 ± 0.039 | 0.461 ± 0.023 | 0.367 ± 0.01
CCN1CCN(Cc2ccc(Nc3ncc(F)c(-c4cc(F)c5nc(C)n(C(C)C)c5c4)n3)nc2)CC1 [Abemaciclib] | 1.13 ± 0.036 | 1.16 ± 0.06 | 1.13 ± 0.048 | 1.12 ± 0.035 | 1.1 ± 0.051 | 1.11 ± 0.051 | 1.04 ± 0.037 | 0.894 ± 0.059 | 0.781 ± 0.028 | 0.832 ± 0.027 | 0.825 ± 0.035
CCc1cc2c(cc1N1CCC(N3CCOCC3)CC1)C(C)(C)c1[nH]c3cc(C#N)ccc3c1C2=O [Alectinib] | 1.15 ± 0.037 | 1.13 ± 0.066 | 1.11 ± 0.035 | 1.129 ± 0.011 | 1.19 ± 0.058 | 1.2 ± 0.1 | 1.21 ± 0.055 | 1.22 ± 0.073 | 1.2 ± 0.055 | 1.16 ± 0.022 | 1.18 ± 0.04
Cc1nc(NC(=O)N2CCC[C@H]2C(N)=O)sc1-c1ccnc(C(C)(C)C(F)(F)F)c1 [Alpelisib] | 1.09 ± 0.054 | 1.12 ± 0.043 | 1.12 ± 0.059 | 1.15 ± 0.065 | 1.09 ± 0.089 | 1.05 ± 0.026 | 1.07 ± 0.061 | 0.968 ± 0.025 | 0.876 ± 0.0097 | 0.643 ± 0.025 | 0.446 ± 0.036
Cn1cc(-c2cc3c(N4CCN(c5ncc([C@@](C)(N)c6ccc(F)cc6)cn5)CC4)ncnn3c2)cn1 [Avapritinib] | 1.058 ± 0.0041 | 1.04 ± 0.013 | 1.07 ± 0.036 | 1.05 ± 0.031 | 1.05 ± 0.035 | 1.01 ± 0.017 | 1.09 ± 0.064 | 1.06 ± 0.034 | 1.02 ± 0.021 | 1.03 ± 0.03 | 0.95 ± 0.038
CC(C)NC(=O)C1CCC(n2c(NC(=O)c3ccc(F)cc3)nc3ccc(CN4CCC(C(C)(C)O)CC4)cc32)CC1 (stereo not drawn) [Belizatinib] | 1.169 ± 0.011 | 1.17 ± 0.071 | 1.19 ± 0.024 | 1.21 ± 0.098 | 1.21 ± 0.11 | 1.17 ± 0.056 | 1.16 ± 0.012 | 1.18 ± 0.03 | 1.09 ± 0.048 | 0.798 ± 0.034 | 0.381 ± 0.056
Cn1cnc2c(F)c(Nc3ccc(Br)cc3F)c(C(=O)NOCCO)cc21 [Binimetinib] | 1.12 ± 0.038 | 1.17 ± 0.046 | 1.11 ± 0.03 | 1.11 ± 0.028 | 1.14 ± 0.037 | 1.12 ± 0.069 | 1.06 ± 0.058 | 1.01 ± 0.071 | 0.953 ± 0.035 | 0.847 ± 0.035 | 0.642 ± 0.018
Nc1cc(C(F)(F)F)c(-c2cc(N3CCOCC3)nc(N3CCOCC3)n2)cn1 [Buparlisib] | 1.12 ± 0.044 | 1.14 ± 0.075 | 1.11 ± 0.047 | 1.11 ± 0.04 | 1.08 ± 0.049 | 1.09 ± 0.077 | 1.03 ± 0.016 | 0.9 ± 0.055 | 0.599 ± 0.041 | 0.38 ± 0.022 | 0.282 ± 0.0065
CNC(=O)c1ccc(-c2cnc3ncc(Cc4ccc5ncccc5c4)n3n2)cc1F [Capmatinib] | 1.19 ± 0.017 | 1.2 ± 0.043 | 1.19 ± 0.047 | 1.15 ± 0.056 | 1.12 ± 0.046 | 1.127 ± 0.0092 | 1.13 ± 0.029 | 1.14 ± 0.085 | 1.17 ± 0.06 | 1.13 ± 0.052 | 1.05 ± 0.045
COc1cc2c(Oc3ccc4[nH]c(C)cc4c3F)ncnc2cc1OCCCN1CCCC1 [Cediranib] | 1.18 ± 0.024 | 1.17 ± 0.076 | 1.17 ± 0.03 | 1.17 ± 0.059 | 1.16 ± 0.033 | 1.169 ± 0.011 | 1.15 ± 0.029 | 1.19 ± 0.033 | 1.2 ± 0.035 | 1.19 ± 0.039 | 0.987 ± 0.058
COc1c(OCCCN2CCOCC2)ccc2c1N=C(NC(=O)c1cnc(N)nc1)N1CCN=C21 [Copanlisib] | 1.09 ± 0.061 | 1.12 ± 0.062 | 1 ± 0.026 | 0.7483 ± 0.0065 | 0.631 ± 0.025 | 0.516 ± 0.018 | 0.469 ± 0.011 | 0.435 ± 0.018 | 0.425 ± 0.017 | 0.403 ± 0.0053 | 0.368 ± 0.002
CN1CCN(c2ccc3nc(-c4c(N)c5c(F)cccc5[nH]c4=O)[nH]c3c2)CC1 [Dovitinib] | 1.12 ± 0.039 | 1.17 ± 0.013 | 1.17 ± 0.033 | 1.15 ± 0.037 | 1.18 ± 0.028 | 1.15 ± 0.038 | 1.11 ± 0.037 | 1.138 ± 0.01 | 0.977 ± 0.034 | 0.656 ± 0.019 | 0.294 ± 0.038
COc1cccc2c1C(=O)c1c(O)c3c(c(O)c1C2=O)C[C@@](O)(C(=O)CO)C[C@@H]3O[C@H]1C[C@H](N)[C@H](O)[C@H](C)O1 [Doxorubicin Hydrochloride] | 1.21 ± 0.03 | 1.21 ± 0.023 | 1.2 ± 0.058 | 1.157 ± 0.0079 | 1.06 ± 0.044 | 0.96 ± 0.031 | 0.821 ± 0.062 | 0.731 ± 0.14 | 0.813 ± 0.013 | 0.803 ± 0.033 | 0.693 ± 0.024
Cc1cnc(Nc2ccc(OCCN3CCCC3)cc2)nc1Nc1cccc(S(=O)(=O)NC(C)(C)C)c1 [Fedratinib] | 1.12 ± 0.04 | 1.16 ± 0.04 | 1.17 ± 0.081 | 1.16 ± 0.021 | 1.15 ± 0.047 | 1.13 ± 0.038 | 1.1 ± 0.029 | 1 ± 0.023 | 0.666 ± 0.04 | 0.399 ± 0.018 | 0.0027
C=CC(=O)N1CCC[C@@H](n2nc(-c3ccc(Oc4ccccc4)cc3)c3c(N)ncnc32)C1 [Ibrutinib] | 1.18 ± 0.037 | 1.22 ± 0.063 | 1.2 ± 0.016 | 1.22 ± 0.026 | 1.17 ± 0.054 | 1.24 ± 0.054 | 1.15 ± 0.12 | 1.24 ± 0.061 | 1.26 ± 0.078 | 1.3 ± 0.071 | 1.06 ± 0.031
CC[C@H](Nc1ncnc2[nH]cnc12)c1nc2cccc(F)c2c(=O)n1-c1ccccc1 [Idelalisib] | 1.18 ± 0.064 | 1.22 ± 0.025 | 1.18 ± 0.07 | 1.23 ± 0.045 | 1.02 ± 0.08 | 0.946 ± 0.023 | 0.875 ± 0.049 | 0.772 ± 0.049 | 0.658 ± 0.053 | 0.6 ± 0.014 | 0.513 ± 0.017
O=C(Cc1ccc(-c2ccc(OCCN3CCOCC3)cc2)cn1)NCc1ccccc1 [KX2-391] | 1.13 ± 0.039 | 1.15 ± 0.03 | 1.18 ± 0.014 | 1.182 ± 0.011 | 1.15 ± 0.025 | 1.04 ± 0.073 | 0.77 ± 0.02 | 0.696 ± 0.027 | 0.751 ± 0.024 | 0.762 ± 0.044 | 0.734 ± 0.033
O=C(Nc1cnn2ccc(N3CCC[C@@H]3c3cc(F)ccc3F)nc12)N1CC[C@H](O)C1 [Larotrectinib] | 1.13 ± 0.057 | 1.19 ± 0.071 | 1.19 ± 0.044 | 1.16 ± 0.025 | 1.2 ± 0.073 | 1.15 ± 0.05 | 1.14 ± 0.043 | 1.17 ± 0.084 | 1.16 ± 0.021 | 1.09 ± 0.069 | 1.1 ± 0.04
